From PMC5238504 (Scientific Reports, 2017)

What was measured:
[1] = molecular target: T1, M2 muscarinic receptor (M2 wt) (Homo sapiens, UniProt P08172); assay: slowing of [3H]NMS dissociation by cold NMS, CHO membranes; type: binding; details: second site; allosteric; apparent affinity for the receptor-[3H]NMS complex; slope factor nH fitted; pH […] °C, […] NaCl, […] MgCl2
T1 construct: gene CHRM2
T1 sequence (P08172 1-466): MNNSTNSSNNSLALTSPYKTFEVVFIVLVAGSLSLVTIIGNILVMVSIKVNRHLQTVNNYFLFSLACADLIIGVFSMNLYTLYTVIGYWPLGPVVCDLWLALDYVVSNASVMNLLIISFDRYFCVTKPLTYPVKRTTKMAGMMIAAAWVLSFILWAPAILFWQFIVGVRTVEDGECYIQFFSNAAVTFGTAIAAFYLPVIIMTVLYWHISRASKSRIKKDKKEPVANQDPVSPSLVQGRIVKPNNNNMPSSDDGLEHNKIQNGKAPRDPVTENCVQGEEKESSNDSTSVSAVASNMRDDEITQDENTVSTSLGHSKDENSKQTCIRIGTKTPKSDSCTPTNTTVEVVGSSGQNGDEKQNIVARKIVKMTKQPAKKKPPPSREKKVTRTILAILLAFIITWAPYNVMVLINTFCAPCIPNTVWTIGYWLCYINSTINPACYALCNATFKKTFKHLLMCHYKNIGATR

[2] = molecular target: T2, M5 muscarinic receptor (Homo sapiens, UniProt P08912); assay: as above; type: binding; details: second site; allosteric; apparent affinity for the receptor-[3H]NMS complex; slope factor nH fitted; pH […] °C, […] NaCl, […] MgCl2
T2 construct: gene CHRM5; expressed in CHO cells, membranes; species printed only for M2 and M3
T2 sequence (P08912 1-532): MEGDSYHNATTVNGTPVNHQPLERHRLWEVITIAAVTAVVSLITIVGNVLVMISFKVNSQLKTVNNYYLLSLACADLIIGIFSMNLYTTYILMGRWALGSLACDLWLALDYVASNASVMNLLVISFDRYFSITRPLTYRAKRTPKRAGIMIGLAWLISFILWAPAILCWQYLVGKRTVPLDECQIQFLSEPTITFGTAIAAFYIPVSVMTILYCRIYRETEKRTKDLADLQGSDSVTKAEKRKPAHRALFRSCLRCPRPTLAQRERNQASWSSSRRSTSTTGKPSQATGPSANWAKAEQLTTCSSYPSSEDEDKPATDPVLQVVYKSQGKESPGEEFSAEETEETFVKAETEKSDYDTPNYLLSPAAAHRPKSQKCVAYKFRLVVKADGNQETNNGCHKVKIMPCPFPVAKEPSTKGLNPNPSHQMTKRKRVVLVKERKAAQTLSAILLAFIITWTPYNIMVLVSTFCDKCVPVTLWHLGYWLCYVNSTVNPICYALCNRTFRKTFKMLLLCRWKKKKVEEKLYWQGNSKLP
From the text: slowing of [3H]NMS dissociation by cold NMS, CHO membranes on M5 muscarinic receptor

`C[N+]1(C)[C@@H]2C[C@@H](OC(=O)[C@H](CO)c3ccccc3)C[C@H]1[C@@H]1O[C@@H]12` [N-methylscopolamine] was tested, and the “NMS / pKA” value [1] was 3.62 ± 0.03 negative logarithm and the “NMS / pKA” value [2] was 3.86 ± 0.03 negative logarithm.
